Data set [1] deals with Dual specificity tyrosine-phosphorylation-regulated kinase 1A (Homo sapiens, UniProt Q13627). The experiment in a line: Inhibition of DYRK1A (unknown origin) using HT-497 as substrate preincubated with compound followed by substrate addition and measured after 30 mins in the presence of ATP by ELISA analysis. For orientation: ELISA stands for enzyme-linked immunosorbent assay.

The subject of data set [2] is Mus musculus. The experiment in a line: Anti-inflammatory activity in MOG (35 to 55 residues)-induced experimental autoimmune encephalomyelitis mouse model assessed as reduction in brain IL-17 level at 15 mg/kg, INH. Type of data set: functional. The arrangement: scale not given: the % may be the effect or the level left.
For data set [3], the system named is Mus musculus. The experiment in a line: Anti-inflammatory activity in MOG (35 to 55 residues)-induced experimental autoimmune encephalomyelitis mouse model assessed as reversal of clinical scores at 15 mg/kg, INH administered twice daily for 25 days. It counts as functional, organism-based. To be noted: time 25.0 day.
Data set [4] relates to Mus musculus. The experiment in a line: Anti-inflammatory activity in MOG (35 to 55 residues)-induced experimental autoimmune encephalomyelitis mouse model assessed as reduction in brain TNFalpha level at 15 mg/kg, INH. Type of data set: functional, organism-based.
In data set [5] the test system is Mus musculus. The experiment in a line: Anti-inflammatory activity in MOG (35 to 55 residues)-induced experimental autoimmune encephalomyelitis mouse model assessed as reduction in spinal cord axonal neurodegeneration severity score at 15 mg/kg, INH by Bielschowsky silver staining based light microscopic analysis. Type of data set: functional, organism-based.
The test system of data set [6] is Mus musculus. In words: Anti-inflammatory activity in MOG (35 to 55 residues)-induced experimental autoimmune encephalomyelitis mouse model assessed as reduction in spinal cord inflammation severity score at 15 mg/kg, INH by H&E staining based light microscopic analysis. Type of data set: functional, organism-based.
For data set [7], the system named is Mus musculus. The experiment in a line: Anti-inflammatory activity in MOG (35 to 55 residues)-induced experimental autoimmune encephalomyelitis mouse model assessed as reduction in spinal cord demyelination severity score at 15 mg/kg, INH by Luxol fast blue staining based light microscopic analysis. Type of data set: functional, organism-based.
The test system of data set [8] is Mus musculus. In words: Anti-inflammatory activity in MOG (35 to 55 residues)-induced experimental autoimmune encephalomyelitis mouse model assessed as reduction in brain IFNgamma level at 15 mg/kg, INH. It counts as functional. The arrangement: scale not given: the % may be the effect or the level left.
A short description of data set [9]: Bioavailability in CF-1 mouse at 163.8 micromol/kg, IG measured upto 720 mins. The note with it: in vivo, po, 163.8 µmol/kg. Type of data set: ADME, organism-based.
The nature of data set [10]: Oral bioavailability in Sprague-Dawley rat at 100 mg/kg. It counts as ADME, organism-based. To be noted: in vivo.
The species entered for data set [11] is Mus musculus. The experiment in a line: Anti-inflammatory activity in MOG (35 to 55 residues)-induced experimental autoimmune encephalomyelitis mouse model assessed as reduction in spinal cord inflammation severity score by H&E staining based light microscopic analysis. Type of data set: functional, organism-based.
Data set [12] concerns Mus musculus. In words: Anti-inflammatory activity in MOG (35 to 55 residues)-induced experimental autoimmune encephalomyelitis mouse model assessed as reversal of clinical scores at 1 mg/kg, INH administered once daily for 25 days. Type of data set: functional, organism-based. To be noted: time 25.0 day.
The species entered for data set [13] is Mus musculus. In words: Anti-inflammatory activity in MOG (35 to 55 residues)-induced experimental autoimmune encephalomyelitis mouse model assessed as reduction in spinal cord demyelination severity score by Luxol fast blue staining based light microscopic analysis. It counts as functional, organism-based.
The species entered for data set [14] is Mus musculus. In words: Anti-inflammatory activity in MOG (35 to 55 residues)-induced experimental autoimmune encephalomyelitis mouse model assessed as reduction in spinal cord axonal neurodegeneration severity score by Bielschowsky silver staining based light microscopic analysis. It counts as functional, organism-based.

pIC50: −log10 of the molar value. Activity calls are given as the source filed them. The rule behind the calls is not given here.

With `O=C(O[C@@H]1Cc2c(O)cc(O)cc2O[C@H]1c1ccc(O)c(O)c1)c1cc(O)c(O)c(O)c1F` (racemic), the pIC50 (usually −log10 of the IC50, conventionally taken in molar units) in [1] is 7.13.

In the case of `O=C(O[C@@H]1Cc2c(O)cc(O)cc2O[C@H]1c1cc(O)c(O)c(O)c1)c1cc(O)c(O)cc1C(F)(F)F`, the pIC50 in [1] was 6.36.

With `O=C(O[C@@H]1Cc2c(O)cc(O)cc2O[C@H]1c1cc(O)c(O)c(O)c1F)c1cc(O)c(O)c(O)c1`, the pIC50 in data set [1] was 7.22. For the molecule `O=C(O[C@@H]1Cc2ccccc2C[C@H]1c1cc(O)c(O)c(O)c1)c1cc(O)c(O)c(O)c1` (racemic), the pIC50 in [1] was 5.98.

Turning to `O=C(O[C@@H]1Cc2c(O)cc(O)cc2O[C@H]1c1cc(O)c(O)c(O)c1)c1cc(O)c(O)cc1O`, the pIC50 in [1] is 6.76. Regarding `COc1c(O)cc([C@@H]2Oc3cc(O)cc(O)c3C[C@H]2OC(=O)c2cc(O)c(O)c(O)c2)cc1O`, the pIC50 in data set [1] is 5.24. Consider `Cc1c([C@@H]2Oc3cc(O)cc(O)c3C[C@H]2OC(=O)c2cc(O)c(O)c(O)c2)cc(O)c(O)c1O`, for which the pIC50 in data set [1] is 6.53.

In the case of `O=C(O[C@@H]1Cc2c(O)cc(O)cc2O[C@H]1c1cc(O)c(O)c(O)c1)c1cc(O)c(O)cc1F`, in [1], the pIC50 is 6.97. For the molecule `O=C(O[C@@H]1Cc2c(O)cc(O)cc2O[C@H]1c1cc(O)c(O)c(O)c1)c1ccc(O)c(O)c1O`, in data set [1], the pIC50 was 6.97. For `O=C(O[C@@H]1Cc2c(O)cc(O)cc2O[C@H]1c1cc(O)c(O)c(O)c1)c1cc(O)c(O)c(O)c1F`, the Activity is on record as 79% in the data set on Mus musculus [2] and 90% in the data set with Mus musculus [8]. Further, the outcome with Mus musculus [3], in the data set on Mus musculus [4], in the data set with Mus musculus [5], with Mus musculus [6] and in the data set on Mus musculus [7] was Active. Besides, the pIC50 in [1] is 7.46. With `O=C(O[C@@H]1Cc2c(O)cc(O)cc2O[C@H]1c1cc(O)c(O)cc1F)c1cc(O)c(O)c(O)c1`, the pIC50 in data set [1] is 6.82. Take `O=C(O[C@@H]1Cc2c(O)cc(O)cc2O[C@@H]1c1cc(O)c(O)c(O)c1)c1cc(O)c(O)c(O)c1` [EPIGALOCATECHIN GALLATE]: the results for the bioavailability in data set [9] and in data set [10] were 12% and at most 5%, respectively. Moreover, the pIC50 in data set [1] is 6.63.

Consider `O=C(O[C@@H]1Cc2c(O)cc(O)cc2O[C@H]1c1cc(O)c(O)cc1F)c1cc(O)c(O)c(O)c1F`, for which the pIC50 in data set [1] is 6.94.

With `COc1c(O)cc(C(=O)O[C@@H]2Cc3c(O)cc(O)cc3O[C@H]2c2cc(O)c(O)c(O)c2)cc1O`, in data set [1], the pIC50 was 4.60. Regarding `O=C(O[C@@H]1Cc2c(O)cc(O)cc2O[C@H]1c1cc(O)c(O)c(O)c1)c1cc(O)c(O)c(F)c1`, the pIC50 in data set [1] is 6.84. Still for that read-out and setting: next, `O=C(O[C@@H]1Cc2ccccc2O[C@H]1c1cc(O)c(O)c(O)c1)c1cc(O)c(O)c(O)c1` (racemic): 6.37; `O=C(O[C@@H]1Cc2c(O)cc(O)cc2O[C@H]1c1ccc(O)c(O)c1)c1cc(O)c(O)c(O)c1` [(-)-CATECHINGALLATE]: 6.66; `O=C(O[C@@H]1Cc2c(O)cc(O)cc2O[C@@H]1c1ccc(O)c(O)c1)c1cc(O)c(O)c(O)c1` [EPICATECHIN GALLATE]: 6.28. As for `Cc1c(C(=O)O[C@@H]2Cc3c(O)cc(O)cc3O[C@H]2c2cc(O)c(O)c(O)c2)ccc(O)c1O`, the pIC50 in data set [1] is 6.26.

For `CCCCCCCCc1ccc(CCC(N)(CO)CO)cc1`, the result in the data set listed under Mus musculus [11], with Mus musculus [12], in the data set listed under Mus musculus [13] and in the data set listed under Mus musculus [14] was Active. `COc1cc(C(=O)O[C@@H]2Cc3c(O)cc(O)cc3O[C@@H]2c2cc(O)c(O)c(O)c2)cc(O)c1O`: the pIC50 in data set [1] is 6.37. Take `O=C(O[C@@H]1Cc2c(O)cc(O)cc2O[C@H]1c1cc(O)c(O)c(O)c1)c1ccc(O)c(O)c1`: the pIC50 in data set [1] was 6.63.

In the case of `O=C(O[C@@H]1Cc2c(O)cc(O)cc2O[C@H]1c1cc(O)c(O)c(O)c1F)c1cc(O)c(O)c(O)c1F`, in data set [1], the pIC50 was 7.27. Turning to `O=C(O[C@@H]1Cc2c(O)cccc2O[C@H]1c1cc(O)c(O)c(O)c1)c1cc(O)c(O)c(O)c1` (racemic), in [1], the pIC50 is 6.67.

For the origin of these results see ChEMBL document CHEMBL5143627, “Design, synthesis, and biological evaluation of polyphenol derivatives as DYRK1A inhibitors. The discovery of a potentially promising treatment for Multiple Sclerosis” (Bioorg Med Chem Lett, 2022).
